For data set [1], the target named is T1, Na^+ /H^+ exchanger of rabbit erythrocytes (Oryctolagus cuniculus, UniProt P23791).
T1 construct: endogenous in cells; host or cells: erythrocytes in heparinised blood of cholesterol-fed New Zealand White rabbits (Ivanovas)
Briefly: Inhibition of the Na^+ /H^+ exchanger of rabbit erythrocytes (Na^+ influx by flame photometry). The note with it: pH 7.4, 37° C., hyperosmolar salt/sucrose medium, cholesterol-fed rabbits, read-out: IC 50, Na^+ /H^+ -exchanger inhibition. Format: cell-based, rabbit (New Zealand White). An excerpt:
Inhibition of the Na^+ /H^+ exchanger of rabbit erythrocytes:
New Zealand White rabbits (Ivanovas) were given a standard diet containing 2% cholesterol for 6 weeks in order to activate Na^+ /H^+ exchange and thus render it possible to determine the Na^+ influx into the erythrocytes via Na^+ /H^+ exchange by flame photometry. The blood was removed from the aural arteries and rendered incoagulable using 25 IU/ml potassium heparin. A portion of each sample was used for determining, in duplicate, the hematocrit by centrifugation. Aliquots of in each case 100 μl were used for measuring the initial content of Na^+ in the erythrocytes.
In order to determine the amiloride-sensitive sodium influx, 100 μl of each blood sample were incubated, at pH 7.4 and 37° C., in in each case 5 ml of a hyperosmolar salt/sucrose medium (mmol/l:140 NaCl, 3 KCl, 150 sucrose, 0.1 ouabain, 20 tris(hydroxymethyl)aminomethane). After that, the erythrocytes were washed three times with ice-cold MgCl2 /ouabain solution (mmol/l: 112 MgCl2, 0.1 ouabain), and haemolyzed in 2.0 ml of distilled water. The intracellular content of sodium was determined by flame photometry.
The net influx of Na^+ was calculated from the difference between the initial sodium values and the sodium content of the erythrocytes after incubation. The amiloride-inhibitable sodium influx was given by the difference in the sodium content of the erythrocytes after incubation with and without 3×10^-4 mol/l amiloride. The same procedure was employed for the compounds according to the invention.

The subject of data set [2] is disturbances of cardiac rhythm. Particulars: literature; cited from earlier work.
The subject of another data set is rat hearts. Particulars: isolated rat hearts; cited from earlier work.

Counter-ions that a name gives are not always drawn.

Consider six compounds from patent US5567734A, “Phenyl-substituted alkylcarboguanidides carrying perfluoroalkyl groups, a process for their preparation, their use as a medicament or a diagnostic agent, and a medicament containing them” (priority 1994, dated 1996).

T1 sequence (P23791 whole entry): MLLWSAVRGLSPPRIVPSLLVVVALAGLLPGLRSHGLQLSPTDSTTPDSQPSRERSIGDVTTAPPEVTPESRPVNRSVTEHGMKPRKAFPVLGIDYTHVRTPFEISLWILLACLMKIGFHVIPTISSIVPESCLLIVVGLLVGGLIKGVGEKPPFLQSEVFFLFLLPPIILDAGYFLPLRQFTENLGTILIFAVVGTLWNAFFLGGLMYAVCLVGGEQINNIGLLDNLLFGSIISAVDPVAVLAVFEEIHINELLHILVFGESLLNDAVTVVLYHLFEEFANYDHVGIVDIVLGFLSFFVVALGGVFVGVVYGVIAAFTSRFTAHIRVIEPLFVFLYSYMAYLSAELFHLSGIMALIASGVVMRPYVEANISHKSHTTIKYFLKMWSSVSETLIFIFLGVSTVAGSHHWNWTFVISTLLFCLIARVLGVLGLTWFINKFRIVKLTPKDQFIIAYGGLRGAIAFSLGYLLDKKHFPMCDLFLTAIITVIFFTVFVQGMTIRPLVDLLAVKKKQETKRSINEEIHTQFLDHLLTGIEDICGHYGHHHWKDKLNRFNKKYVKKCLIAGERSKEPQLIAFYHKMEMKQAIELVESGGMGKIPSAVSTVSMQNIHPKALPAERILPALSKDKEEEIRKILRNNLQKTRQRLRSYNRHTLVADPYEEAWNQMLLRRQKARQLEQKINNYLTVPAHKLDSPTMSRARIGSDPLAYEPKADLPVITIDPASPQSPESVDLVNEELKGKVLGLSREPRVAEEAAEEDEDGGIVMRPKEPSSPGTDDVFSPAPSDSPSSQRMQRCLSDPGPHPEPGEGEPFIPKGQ

In the case of `CC(Cc1cccc(C(F)(F)F)c1)C(=O)N=C(N)N` (racemic) [Example 5, 2-Methyl-3-(3-trifluoromethylphenyl)propionoguanidide hydrochloride], in data set [1], the IC50 is 50 nM. Still for that read-out and setting: under `NC(N)=NC(=O)CCc1cccc(C(F)(F)F)c1` [Example 1, 3-(3-Trifluoromethylphenyl)propionoguanidide] stands 600 nM.

For `NC(N)=NC(=O)CCc1ccccc1C(F)(F)F` [Example 2, 3-(2-Trifluoromethylphenyl)propionoguanidide], the IC50 in data set [1] is 500 nM. On the same count and under the same terms, the same measure for `NC(N)=NC(=O)CCc1cccc(OC(F)(F)F)c1` [Example 3, 3-(3-Trifluoromethoxyphenyl)propionoguanidide hydrochloride]: 700 nM.

In the case of `N=C(N)NC(=O)c1nc(Cl)c(N)nc1N` [amiloride], in data set [2], the antiarrhythmic effect result is listed as “only weakly expressed”; the “side effects when treating disturbances of cardiac rhythm” value is “hypotensive and saluretic effects”. Also, in the data set with rat hearts, the “suppression of artificially induced ventricular fibrillation” value is reported as “completely suppress”.

Regarding `CCN(c1nc(N)c(C(=O)NC(=N)N)nc1Cl)C(C)C` [ethylisopropyl amiloride, Ethylisopropyl amiloride], in the data set on rat hearts, the “potency relative to amiloride, ventricular fibrillation” value is “even more potent than amiloride”.
